Test results from patent publication US8993630B2, “Substituted sulphonamido phenoxybenzamides” (Bayer Intellectual Property GmbH, priority 2008, dated 2015).

What was measured:
[1] = target: T1, MEK1 (Homo sapiens, UniProt Q02750); assay: MEK1 activation kinase assay (Cot1/GST-MEK1 HTRF); assay type: biochemical; details: GST-MEK1 substrate, read-out: IC50, inhibition of MEK1 activation
T1 construct: purchased Millipore 14-420 (GST-MEK1); 14-703 (Cot1); host or cells: Cot1: insect cells (SF21)
Text: The kinase Cot1 activates MEK1 by phosphorylating its activation loop. The inhibitory activity of compounds of the present invention on this activation of MEK1 was quantified employing the HTRF assay described in the following paragraphs.
N-terminally His6-tagged recombinant kinase domain of the human Cot1 (amino acids 30-397, purchased from Millipore, cat. no 14-703) expressed in insect cells (SF21) and purified by Ni-NTA affinity chromatography was used as kinase. As substrate for the kinase reaction the unactive C-terminally His6-tagged GST-MEK1 fusion protein (Millipore cat. no 14-420) was used.
For the assay 50 nl of a 100fold concentrated solution of the test compound in DMSO was pipetted into a black low volume 384well microtiter plate (Greiner Bio-One, Frickenhausen, Germany), 3 μl of a solution of 24 nM GST-MEK1 and 166.7 μM adenosine-tri-phosphate (ATP) in assay buffer [50 mM Tris/HCl pH 7.5, 10 mM MgCl2, 2 mM dithiothreitol, 0.01% (v/v) Igepal CA 630 (Sigma), 5 mM β-phospho-glycerol] were added and the mixture was incubated for 10 min at 22° C. to allow pre-binding of the test compounds to the GST-MEK1 before the start of the kinase reaction. Then the kinase reaction was started by the addition of 2 μl of a solution of Cot1 in assay buffer and the resulting mixture was incubated for a reaction time of 20 min at 22° C. The concentration of Cot1 in the assay was adjusted depending of the activity of the enzyme lot and was chosen appropriate to have the assay in the linear range, typical enzyme concentrations were in the range of about 2 ng/μl (final conc. in the 5 μl assay volume). The reaction was stopped by the addition of 5 μl of a solution of HTRF detection reagents (13 nM anti GST-XL665 [# 61GSTXLB, Fa. Cis Biointernational, Marcoule, France], 1 nM Eu-cryptate labelled anti-phospho-MEK 1/2 (Ser217/221) [#61P17KAZ, Fa. Cis Biointernational],) in an aqueous EDTA-solution (100 mM EDTA, 500 mM KF, 0.2% (w/v) bovine serum albumin in 100 mM HEPES/NaOH pH 7.5).
The resulting mixture was incubated 2 h at 22° C. to allow the binding of the phosphorylated GST-MEK1 to the anti-GST-XL665 and the Eu-cryptate labelled anti-phospho-MEK 1/2 antibody. Subsequently the amount of Ser217/Ser221-phosphorylated substrate was evaluated by measurement of the resonance energy transfer from the Eu-Cryptate-labelled anti-phospho-MEK antibody to the anti-GST-XL665. Therefore, the fluorescence emissions at 620 nm and 665 nm after excitation at 350 nm was measured in a HTRF reader, e.g. a Rubystar (BMG Labtechnologies, Offenburg, Germany) or a Viewlux (Perkin-Elmer). The ratio of the emissions at 665 nm and at […] was taken as the measure for the amount of phosphorylated substrate. […]

[2] = test system: A375 cells; assay: A375 proliferation crystal violet (CV) assay; assay type: cell-based; details: Homo sapiens, A-375, 96 h, 4 days, crystal violet staining
Experimental: Cultivated human A375 cells were plated out in a density of 1500 cells/measurement point in 200 μl of growth medium (DMEM/HAMS F12 (Biochrom; FG4815) with 10% FBS and 2 mM Glutamine) in a 96-well multititer plate. After 24 hours, the cells from a plate (zero plate) were stained with crystal violet (see below), while the medium in the other plates was replaced by fresh culture medium (200 μl) to which the test substances had been added in various concentrations (0 μM, and in the range 0.3 nM -30 μM; the final concentration of the solvent dimethyl sulphoxide was 0.5%). The cells were incubated in the presence of the test substances for 4 days. The cell proliferation was determined by staining the cells with crystal violet: the cells were fixed by adding 20 μl/measurement point of an 11% glutaraldehyde solution at room temperature for 15 min. After the fixed cells had been washed three times with water, the plates were dried at room temperature. […] The dye was dissolved by adding 100 μl/measurement point of a 10% acetic acid solution, and the extinction was determined by photometry at a wavelength of 595 nm. The percentage change in cell growth was calculated by normalizing the measurements to the extinctions of the zero point plate (=0%) and the extinction of the untreated (0 μM) cells (=100%). The IC50 values were determined by means of a 4-parameter fit using the company's own software.

[3] = test system: MEK1/2; details: cited from earlier work
[4] = test system: colon cancer; details: oral treatment, mouse models; cited from earlier work

T1 sequence (Q02750 whole entry): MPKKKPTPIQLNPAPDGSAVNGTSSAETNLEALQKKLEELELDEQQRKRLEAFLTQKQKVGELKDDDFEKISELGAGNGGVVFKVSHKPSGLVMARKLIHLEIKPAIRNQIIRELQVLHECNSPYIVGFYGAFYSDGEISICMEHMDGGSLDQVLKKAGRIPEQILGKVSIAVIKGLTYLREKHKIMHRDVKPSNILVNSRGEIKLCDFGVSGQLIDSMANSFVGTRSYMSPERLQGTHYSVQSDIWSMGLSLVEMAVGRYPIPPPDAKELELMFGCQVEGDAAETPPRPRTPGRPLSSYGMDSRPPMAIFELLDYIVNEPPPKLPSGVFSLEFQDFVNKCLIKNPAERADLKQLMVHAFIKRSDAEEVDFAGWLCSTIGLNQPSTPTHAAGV

SMILES	IC50 [1]	IC50 [2]	IC50 [3]	colon cancer growth in vivo [4]
CCS(=O)(=O)Nc1cccc(Oc2cc(F)cc(Nc3ccc(I)cc3F)c2C(N)=O)c1 [Example Compound 1.1, 2-(3-ethanesulfonylamino-phenoxy)-4-fluoro-6-(2-fluoro-4-iodo-phenylamino)-benzamide]	< 300 nM	< 100 nM	–	–
CC(C)S(=O)(=O)Nc1cccc(Oc2cc(F)cc(Nc3ccc(I)cc3F)c2C(N)=O)c1 [Example Compound 1.2, 4-fluoro-2-(2-fluoro-4-iodo-phenylamino)-6-[3-(propane-2-sulfonylamino)-phenoxy]-benzamide]	< 300 nM	< 100 nM	–	–
CC(C)S(=O)(=O)Nc1cncc(Oc2cc(F)cc(Nc3ccc(I)cc3F)c2C(N)=O)c1 [Example Compound 2.1, 4-fluoro-2-(2-fluoro-4-iodo-phenylamino)-6-[5-(propane-2-sulfonylamino)-pyridin-3-yloxy]-benzamide]	< 300 nM	–	–	–
CCS(=O)(=O)Nc1cccc(COc2cc(F)cc(Nc3ccc(I)cc3F)c2C(N)=O)c1 [Example Compound 3.1, 2-(3-ethanesulfonylamino-benzyloxy)-4-fluoro-6-(2-fluoro-4-iodo-phenylamino)-benzamide]	< 300 nM	–	–	–
O=C(NOCC1CC1)c1ccc(F)c(F)c1Nc1ccc(I)cc1Cl [PD184352]	–	–	low nanomolar range	inhibit colon cancer growth in vivo in mouse models
